Measurements as given in publication PMC4894417, “Quantitative High-Throughput Profiling of Environmental Chemicals and Drugs that Modulate Farnesoid X Receptor” (Scientific Reports, 2014).
Read-outs that look alike come from different tables or passages of the source. Numbered stars: 1 amine (or outer) side, 2 acyl side, 3 side chain; on linkers, the order of the positions; unused ones are H or OH. Bridge positions count the residues as written; N and C are the ends. Square brackets hold non-standard residues; d marks the D form. Peptide text beside a SMILES is read from it. I, II: the chains in the order shown. Actinocin(9to1) = Cc1c2oc3c(C)ccc(C(=O)[*:1])c3nc-2c(C(=O)[*:2])c(N)c1=O; NMeV = CN[C@H](C(=O)O)C(C)C; Sar = CNCC(=O)O

Key:
[1] = test system: FXR-UAS-bla HEK293T cells; assay: Cell viability assay (CellTiter Glo) in the same well as FXR-bla; details: for IC50: read-out: Cytotoxicity IC50
[2] = target: T1, human FXR (Homo sapiens, UniProt Q96RI1); assay: FXR-bla reporter gene assay, antagonist mode (CDCA-induced transactivation); details: for FXR antagonist activity: FXR-bla assay
T1 sequence (Q96RI1 with tags, fused parts or gaps limits assumed): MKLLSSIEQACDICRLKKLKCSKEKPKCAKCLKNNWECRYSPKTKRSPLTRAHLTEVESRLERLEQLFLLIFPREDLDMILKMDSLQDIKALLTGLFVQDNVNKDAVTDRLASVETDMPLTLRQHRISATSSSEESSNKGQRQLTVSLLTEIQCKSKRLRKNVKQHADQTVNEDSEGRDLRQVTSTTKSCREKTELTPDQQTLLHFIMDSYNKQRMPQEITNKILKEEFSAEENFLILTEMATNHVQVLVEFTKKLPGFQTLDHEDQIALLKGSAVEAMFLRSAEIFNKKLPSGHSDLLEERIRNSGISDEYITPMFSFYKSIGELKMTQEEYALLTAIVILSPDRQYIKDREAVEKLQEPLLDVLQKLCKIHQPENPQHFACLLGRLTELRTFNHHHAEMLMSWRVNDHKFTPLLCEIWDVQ

[3] = target: T1, human FXR; assay: FXR-bla reporter gene assay, agonist mode (qHTS); details: for FXR agonist activity: FXR-bla assay; for FXR agonist Efficacy: Table S3; for FXR agonist EC50: Table S3, FXR-active drugs
[4] = IC50, FXR-bla antagonist mode, primary screening, CDCA-induced
[5] = Table S1, primary screening, 50 µM CDCA
[6] = Table 1, mean ± SD of 3 experiments

## Cc1c(COC(=O)[C@@H]2[C@H](/C=C(\Cl)C(F)(F)F)C2(C)C)cccc1-c1ccccc1 (racemic) [Bifenthrin]
[1]; Table S1, primary screening
  Cytotoxicity IC50: Inactive
[2]
  FXR antagonist mode Efficacy: 50 ± 16
[2]; FXR antagonist mode IC50
  IC50: 11.3 ± 4.58 µM
[2]; CDCA-induced
  FXR antagonist activity: highly selective FXR antagonists
[3]; Table S1, primary screening
  FXR agonist mode EC50: Inactive

## Cc1c(F)c(F)c(COC(=O)[C@@H]2[C@H](/C=C(\Cl)C(F)(F)F)C2(C)C)c(F)c1F (racemic) [Tefluthrin]
[1]; Table S1, primary screening
  Cytotoxicity IC50: Inactive
[2]
  FXR antagonist mode Efficacy: 46 ± 7
[2]; FXR antagonist mode IC50
  IC50: 12.4 ± 2.01 µM
[3]; Table S1, primary screening
  FXR agonist mode EC50: Inactive

## C[C@]12CC[C@@H]3c4ccc(O)cc4CC[C@H]3[C@@H]1CC[C@H]2O [17α-Estradiol]
[1]; Table S1, primary screening
  Cytotoxicity IC50: Inactive

## C[C@]12CC[C@@H]3c4ccc(O)cc4CC[C@H]3[C@@H]1CC[C@@H]2O [17β-Estradiol]
[1]; Table S1, primary screening
  Cytotoxicity IC50: Inactive

## Cc1c2oc3c(C)ccc(C(=O)N[C@@H]4C(=O)N[C@H](C(C)C)C(=O)N5CCC[C@H]5C(=O)N(C)CC(=O)N(C)[C@@H](C(C)C)C(=O)O[C@@H]4C)c3nc-2c(C(=O)N[C@@H]2C(=O)N[C@H](C(C)C)C(=O)N3CCC[C@H]3C(=O)N(C)CC(=O)N(C)[C@@H](C(C)C)C(=O)O[C@@H]2C)c(N)c1=O [Actinomycin D] (I: T[dV]P[Sar][NMeV] / II: T[dV]P[Sar][NMeV]; ester I:1-I:C, II:1-II:C; linker I:N-II:N via Actinocin(9to1))
[1]
  Cell viability IC50: Inactive

## CCC[S+]([O-])c1ccc2[nH]c(NC(=O)OC)nc2c1 (stereo not drawn) [Albendazole oxide]
[1]; Table S1, primary screening
  Cytotoxicity IC50: Inactive
[2]
  FXR antagonist mode Efficacy: 35 ± 16%
[2]; FXR antagonist mode IC50
  IC50: 27.9 ± 5.02 µM
[3]; Table S1, primary screening
  FXR agonist mode EC50: Inactive

## O=c1cc(-c2ccc(O)cc2)oc2cc(O)cc(O)c12 [Apigenin]
[1]; Table S1, primary screening
  Cytotoxicity IC50: Inactive

## CCOC(=O)[C@H](CCc1ccccc1)N[C@H]1CCc2ccccc2N(CC(=O)O)C1=O [Benazepril]
[1]; Table S3
  Cytotoxicity Efficacy: 87 ± 27%

## COC(=O)C1=C(C)NC(C)=C(C(=O)OC2CCCN(Cc3ccccc3)C2)C1c1cccc([N+](=O)[O-])c1 (stereo not drawn) [Benidipine]
[1]; Table S1, primary screening
  Cytotoxicity IC50: Inactive
[2]; [4]
  IC50: 24.8 µM
[2]; [5]
  FXR antagonist mode Efficacy: 84 ± 17%
[2]; Table S3, 50 µM CDCA
  FXR antagonist Efficacy: 84 ± 17%
[3]
  FXR agonist activity: weak FXR agonist activity
[3]; Table S1, primary screening
  FXR agonist mode EC50: Inactive

## CCCCNC(=O)n1c(NC(=O)OC)nc2ccccc21 [Benomyl]
[1]; Table S1, primary screening
  Cytotoxicity IC50: Inactive
[2]
  FXR antagonist mode Efficacy: 21 ± 18%
[2]; [4]
  IC50: 18.3 µM
[3]; Table S1, primary screening
  FXR agonist mode EC50: Inactive

## C[C@H](CCC(=O)O)[C@H]1CC[C@H]2[C@@H]3[C@H](O)C[C@@H]4C[C@H](O)CC[C@]4(C)[C@H]3CC[C@]12C [CDCA, Chenodeoxycholic acid]
[1]; Table S1, primary screening
  Cytotoxicity Efficacy: 50 ± 1%

## COCCOC(=O)C1=C(C)NC(C)=C(C(=O)OC/C=C/c2ccccc2)C1c1cccc([N+](=O)[O-])c1 (stereo not drawn) [Cilnidipine]
[1]; Table S1, primary screening
  Cytotoxicity IC50: Inactive
[2]
  IC50: 31.1 ± 2.1 µM
[2]; [5]
  FXR antagonist mode Efficacy: 64 ± 12%
[2]; Table S3, 50 µM CDCA
  FXR antagonist Efficacy: 64 ± 12%
[3]
  EC50: 8.08 ± 3.4 µM
  FXR agonist activity: FXR agonists
  FXR agonist Efficacy: 64 ± 7%
[3]; Table S1, primary screening, CDCA 100%
  FXR agonist mode Efficacy: 64 ± 7%

## O=C(Nc1ccccc1)c1ccccc1SSc1ccccc1C(=O)Nc1ccccc1 [DTBBA, 2,2-Dithiobisbenzanilide]
[2]
  FXR antagonist mode Efficacy: 51 ± 17
[2]; read-out: FXR antagonist mode IC50
  IC50: 18 ± 8.46 µM
[3]
  FXR agonist mode Efficacy: 31 ± 13
[3]; read-out: FXR agonist mode EC50, Table S1, primary screening
  EC50: 24.6 ± 15.3 µM

## CC(=O)O[C@@]12CO[C@@H]1C[C@H](O)[C@@]1(C)C(=O)[C@H](O)C3=C(C)[C@@H](OC(=O)[C@H](O)[C@@H](NC(=O)OC(C)(C)C)c4ccccc4)C[C@@](O)([C@@H](OC(=O)c4ccccc4)[C@H]21)C3(C)C [Docetaxel]
[1]; Table S1, primary screening
  Cytotoxicity IC50: Inactive
[2]
  IC50: 0.008 ± 0.005 µM
[2]; CDCA-induced
  FXR antagonist activity: antagonistic effects
[2]; [5]
  FXR antagonist mode Efficacy: 35 ± 4%
[3]; Table S1, primary screening
  FXR agonist mode EC50: Inactive

## CO[C@H]1C[C@H](O[C@H]2[C@H](C)O[C@@H](O[C@@H]3/C(C)=C/C[C@@H]4C[C@@H](C[C@]5(C=C[C@H](C)[C@@H](C6CCCCC6)O5)O4)OC(=O)[C@@H]4C=C(C)[C@@H](O)[C@H]5OC/C(=C\C=C\[C@@H]3C)[C@]54O)C[C@@H]2OC)O[C@@H](C)[C@@H]1O [Doramectin]
[1]; Table S1, primary screening
  Cytotoxicity Efficacy: 116 ± 6%
  IC50: 11 µM
[1]; Table S3
  Cytotoxicity Efficacy: 116 ± 6%
[2]
  FXR antagonist Efficacy: 152 ± 10%
  FXR antagonist mode Efficacy: 152 ± 10%
[3]
  FXR agonist mode Efficacy: 62 ± 9%
  FXR agonist Efficacy: 62 ± 9%

## COc1cccc2c1C(=O)c1c(O)c3c(c(O)c1C2=O)C[C@@](O)(C(=O)CO)C[C@@H]3O[C@H]1C[C@H](N)[C@@H](O)[C@H](C)O1 [Epirubicin]
[1]; [6]
  Cell viability IC50: Inactive

## CCOc1ccc2nc3cc(N)ccc3c(N)c2c1 [Ethacridine]
[2]; Table S3, 50 µM CDCA
  FXR antagonist Efficacy: 75 ± 17%
[3]
  EC50: 21.4 ± 12 µM
  FXR agonist Efficacy: 31 ± 11%

## C#C[C@]1(O)CC[C@H]2[C@@H]3CCc4cc(O)ccc4[C@H]3CC[C@@]21C [Ethinylestradiol]
[1]; Table S1, primary screening
  Cytotoxicity Efficacy: 36 ± 47%
[1]; Table S3
  Cytotoxicity Efficacy: 36 ± 47%

## CC[C@]1(O)CC[C@H]2[C@@H]3CCC4=CCCC[C@@H]4[C@H]3CC[C@@]21C [Ethylestrenol]
[2]
  FXR antagonist Efficacy: 66 ± 11%
[3]
  FXR agonist EC50: Inactive

## CN1CC[C@H](c2c(O)cc(O)c3c(=O)cc(-c4ccccc4Cl)oc23)[C@H](O)C1 [Flavopiridol]
[1]; [6]
  Cell viability IC50: Inactive

## CC(C)[C@H](Nc1ccc(C(F)(F)F)cc1Cl)C(=O)OC(C#N)c1cccc(Oc2ccccc2)c1 (stereo partly drawn) [Fluvalinate]
[1]; Table S1, primary screening
  Cytotoxicity IC50: Inactive
[2]
  FXR antagonist mode Efficacy: 53 ± 3
[2]; FXR antagonist mode IC50
  IC50: 30.3 ± 12 µM
[3]; Table S1, primary screening
  FXR agonist mode EC50: Inactive

## C[C@]12CC[C@@H]3c4ccc(O)cc4C[C@@H](CCCCCCCCC[S+]([O-])CCCC(F)(F)C(F)(F)F)[C@H]3[C@@H]1CC[C@@H]2O (stereo partly drawn) [Fulvestrant]
[1]; Table S1, primary screening
  Cytotoxicity IC50: Inactive

## CC(C)c1onc(-c2c(Cl)cccc2Cl)c1COc1ccc(/C=C/c2cccc(C(=O)O)c2)c(Cl)c1 [GW4064]
[1]; Table S1, primary screening
  Cytotoxicity IC50: Inactive

## CC[C@H](C)[C@H]1O[C@]2(CC[C@@H]1C)C[C@@H]1C[C@@H](C/C=C(\C)[C@@H](O[C@H]3C[C@H](OC)[C@@H](O[C@H]4C[C@H](OC)[C@@H](O)[C@H](C)O4)[C@H](C)O3)[C@@H](C)/C=C/C=C3\CO[C@@H]4[C@H](O)C(C)=C[C@@H](C(=O)O1)[C@]34O)O2 [Ivermectin B1a]
[1]; Table S1, primary screening
  Cytotoxicity Efficacy: 124 ± 6%
  IC50: 14.1 ± 2.63 µM
[1]; Table S3
  Cytotoxicity Efficacy: 124 ± 6%

## COC(=O)C1=C(C)NC(C)=C(C(=O)OC(C)(C)CN(C)CCC(c2ccccc2)c2ccccc2)C1c1cccc([N+](=O)[O-])c1 (stereo not drawn) [Lercanidipine]
[1]; Table S1, primary screening
  Cytotoxicity IC50: Inactive
[2]
  IC50: 15.5 ± 9.59 µM
[2]; Table S3, 50 µM CDCA
  FXR antagonist Efficacy: -71 ± 10%
[3]; Table S1, primary screening
  FXR agonist mode EC50: Inactive

## CO[C@@]12[C@H](COC(N)=O)C3=C(C(=O)C(C)=C(N)C3=O)N1C[C@@H]1N[C@@H]12 [Mitomycin C]
[2]; Table S3, 50 µM CDCA
  FXR antagonist Efficacy: 62 ± 4%
[3]
  FXR agonist EC50: Inactive

## CO/N=C1\C[C@]2(C[C@@H]3C[C@@H](C/C=C(\C)C[C@@H](C)/C=C/C=C4\CO[C@@H]5[C@H](O)C(C)=C[C@@H](C(=O)O3)[C@]45O)O2)O[C@H](/C(C)=C/C(C)C)[C@H]1C [Moxidectin, moxidectin]
[3]
  FXR agonist activity: did not show agonist activity

## COc1cccc2c1C(=O)c1c(O)c3c(c(O)c1C2=O)C[C@@](O)(C(=O)CO)C[C@@H]3O[C@H]1C[C@H](N2CCO[C@H](OC)C2)[C@H](O)[C@H](C)O1 [Nemorubicin]
[1]
  Cell viability IC50: Inactive

## COC(=O)C1=C(C)NC(C)=C(C(=O)OC)C1c1ccccc1[N+](=O)[O-] [Nifedipine]
[2]; CDCA-induced
  FXR antagonist activity: antagonists
[2]; [4]
  IC50: 34 µM
[2]; [5]
  FXR antagonist mode Efficacy: 66 ± 46%
[3]; Table S1, primary screening
  FXR agonist mode EC50: Inactive

## COC(=O)C1=C(C)NC(C)=C(C(=O)OCC(C)C)C1c1ccccc1[N+](=O)[O-] (stereo not drawn) [Nisoldipine]
[1]; Table S1, primary screening
  Cytotoxicity IC50: Inactive
[2]
  IC50: 32.6 ± 20.2 µM
[2]; CDCA-induced
  FXR antagonist activity: antagonists
[2]; [5]
  FXR antagonist mode Efficacy: 73 ± 29%
[3]; Table S1, primary screening
  FXR agonist mode EC50: Inactive

## CCCCc1ccc2[nH]c(NC(=O)OC)nc2c1 [Parbendazole]
[1]; Table S1, primary screening
  Cytotoxicity IC50: Inactive
[2]
  FXR antagonist mode Efficacy: 43 ± 3%
[2]; FXR antagonist mode IC50
  IC50: 0.16 ± 0.14 µM
[3]; Table S1, primary screening
  FXR agonist mode EC50: Inactive

## CCC1=C[C@@H]2CN(C1)Cc1c([nH]c3ccccc13)[C@@](C(=O)OC)(c1cc3c(cc1OC)N(C)[C@H]1[C@@](O)(C(=O)OC)[C@H](OC(C)=O)[C@]4(CC)C=CCN5CC[C@]31[C@@H]54)C2 [Vinorelbine]
[1]; Table S3
  Cytotoxicity Efficacy: 41 ± 5%
